Where “and” joins values, the source holds several entries; their conditions need not be identical. Identical values can stand only once.
Experiments:
Assay type in all cases: cell-based
[1] = target: T1, mouse P2X1 receptor (mP2X1) (Mus musculus, UniProt P51576); assay: Two-electrode voltage clamp assay, recombinant mP2X1 receptor in Xenopus oocytes; conditions: 2 μM ATP; for mP2X1 % inhibitory effect at 10 μM / inhibition at 10 µM: 10 μM compound, mean±SEM n≥3 (footnote c); for inhibition at 10 µM: read-out: mP2X1 % inhibitory effect at 10 μM
T1 construct: expressed in transfected cells; host or cells: Xenopus oocytes (cRNA microinjection)
T1 sequence (P51576 1-399): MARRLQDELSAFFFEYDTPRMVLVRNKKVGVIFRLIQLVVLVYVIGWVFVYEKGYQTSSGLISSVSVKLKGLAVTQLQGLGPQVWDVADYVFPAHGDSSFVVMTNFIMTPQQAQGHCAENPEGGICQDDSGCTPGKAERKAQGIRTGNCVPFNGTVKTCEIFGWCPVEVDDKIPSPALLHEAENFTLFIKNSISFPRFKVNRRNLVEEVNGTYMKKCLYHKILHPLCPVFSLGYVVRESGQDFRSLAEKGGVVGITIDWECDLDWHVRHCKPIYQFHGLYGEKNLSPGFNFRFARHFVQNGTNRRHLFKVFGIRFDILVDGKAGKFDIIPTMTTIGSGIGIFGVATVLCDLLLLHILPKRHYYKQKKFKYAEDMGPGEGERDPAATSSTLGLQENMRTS
Description: (§1) 1-1. Two-Electrode Voltage Clamp Assay for Recombinant mP2X1 and hP2X3 Receptors
(§2) Xenopus oocytes were isolated and incubated with 270 U/mg of collagenase at 23 to 24° C. for 1.5 hours. Defolliculated oocytes were kept in Barth's solution at 18° C. After 1 day, the defolliculated oocytes were each microinjected cytosolically with mP2X1 and human P2X3 receptor cRNA ([…], 1 μg/mL), incubated for 24 hours at 18° C. in Barth's solution. The cRNA-injected oocytes were kept for 12 days at 4° C. ATP-activated membrane currents (Vh=−70 mV) were recorded from the cRNA-injected oocytes using the two-electrode voltage clamp technique (Axoclamp 2B amplifier). Voltage recording ([…] tip resistance) and current-recording microelectrodes (5 MΩ tip resistance) were filled with 3.0 M KCl. Oocytes were placed in an electrophysiological chamber continuously superfused with Ringer's solution (5 mL/min, at 18° C.) containing 110 mM NaCl, 2.5 mM KCl, 5 mM HEPES and 1.8 mM BaCl2, with pH adjusted to 7.5. To induce an evoked current, 2 μM ATP was superfused for 60 to 120 seconds and then washed for 20 min. For data analysis, the ATP-evoked current was normalized at pH 7.5. The compounds were introduced to the fixed oocytes 20 minutes prior to ATP exposure in the electrophysiological chamber. IC50 values (the concentration of the compound required to inhibit the ATP response by 50%) were determined by Hill plots designed using the Chemical Formula: log(I/Imax−1), where I is the current evoked by ATP in the presence of an antagonist. Data are presented as mean±SEM (n≥3) from different batches of oocytes.
(§3) In order to investigate the structure-activity relationship (SAR) of the compounds synthesized in the present invention, the antagonistic activity was evaluated by a two-electrode voltage clamp (TEVC) assay in Xenopus oocytes expressing the recombinant mP2X1 or hP2X3, respectively. The hP2X7R antagonistic activity was assessed using an ethidium ion accumulation assay in human HEK293 cells stably expressing the recombinant human P2X7R.

[2] = target: T2, human P2X3 receptor (hP2X3) (Homo sapiens, UniProt P56373); assay: Two-electrode voltage clamp assay, recombinant hP2X3 receptor in Xenopus oocytes; conditions: for IC50: 2 μM ATP-evoked current, mean±SEM n≥3 (footnote d); for IC50 / inhibition at 1 µM: Xenopus oocytes; for inhibition at 1 µM: 1 μM compound, 2 μM ATP, mean±SEM n≥3 (footnote b), read-out: hP2X3 % inhibitory effect at 1 μM; for selectivity for hP2X3R to mP2X1R: hP2X3R versus mP2X1R
T2 construct: expressed in transfected cells; host or cells: Xenopus oocytes (cRNA microinjection)
T2 sequence (P56373 1-397): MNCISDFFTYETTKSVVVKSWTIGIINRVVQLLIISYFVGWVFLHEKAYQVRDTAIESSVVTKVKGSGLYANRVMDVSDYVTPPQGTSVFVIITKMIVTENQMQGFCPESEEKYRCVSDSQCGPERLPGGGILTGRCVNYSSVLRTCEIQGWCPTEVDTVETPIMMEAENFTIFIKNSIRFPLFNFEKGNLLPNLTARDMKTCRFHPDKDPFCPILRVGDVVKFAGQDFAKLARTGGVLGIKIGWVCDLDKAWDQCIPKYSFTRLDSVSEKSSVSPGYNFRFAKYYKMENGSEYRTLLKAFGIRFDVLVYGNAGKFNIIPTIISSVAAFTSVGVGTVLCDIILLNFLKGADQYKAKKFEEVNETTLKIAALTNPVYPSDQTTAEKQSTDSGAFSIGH
Description: as §1, §2, §3

[3] = target: T3, human P2X7 receptor (hP2X7) (Homo sapiens, UniProt Q99572); assay: Ethidium bromide accumulation assay in hP2X7-expressing HEK293 cells; conditions: for hP2X7 % inhibition of ethidium bromide accumulation: 10 μM compound with BzATP
T3 construct: expressed in transfected cells
T3 sequence (Q99572 1-595): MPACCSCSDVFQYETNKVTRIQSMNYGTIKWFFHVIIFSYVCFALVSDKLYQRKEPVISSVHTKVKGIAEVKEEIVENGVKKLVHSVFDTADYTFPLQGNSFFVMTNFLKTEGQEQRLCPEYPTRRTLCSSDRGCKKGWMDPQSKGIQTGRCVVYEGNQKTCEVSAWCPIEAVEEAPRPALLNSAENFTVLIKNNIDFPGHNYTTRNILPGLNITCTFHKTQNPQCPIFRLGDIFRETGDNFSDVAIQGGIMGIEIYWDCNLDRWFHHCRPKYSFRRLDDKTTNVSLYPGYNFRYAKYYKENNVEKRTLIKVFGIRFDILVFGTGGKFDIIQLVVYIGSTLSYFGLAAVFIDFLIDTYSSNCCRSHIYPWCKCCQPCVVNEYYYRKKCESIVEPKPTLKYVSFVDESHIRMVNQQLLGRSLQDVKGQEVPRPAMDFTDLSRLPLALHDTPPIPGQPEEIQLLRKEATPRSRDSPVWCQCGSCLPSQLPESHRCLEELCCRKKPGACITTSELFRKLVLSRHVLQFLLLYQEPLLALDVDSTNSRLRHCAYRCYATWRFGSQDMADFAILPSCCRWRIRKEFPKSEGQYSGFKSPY
Description: 1-2. Ethidium Bromide Accumulation Assay in hP2X-Expressing HEK293 Cells
HEK293 cells that are stably transfected with the human P2X7 receptor (P2X7R) were kept under a humidified atmosphere of 5% CO2 at 37° C. in DMEM supplemented with 10% (v/v) FBS, 2 mM L-glutamine and antibiotics (50 U/mL penicillin and 50 μg/ml streptomycin). BzATP-induced pore formation was measured using a fluorescence plate reader by measuring cellular absorption of ethidium in the hP2X7-expressing HEK293 cells. The hP2X7-expressing HEK293 cells were washed once with an appropriate assay buffer, and the buffer was also removed before subsequent analysis. All studies were performed at room temperature and the final assay volume was 100 μL. The cells were resuspended at 2.5×10^6 cells/mL in assay buffers consisting of 10 mM HEPES, 5 mM N-methyl-D-glucamine, 5.6 mM KCl, 10 mM D-glucose and 0.5 mM CaCl2 (pH 7.4) and supplemented with 280 mM sucrose or 140 mM NaCl.
In order to determine the antagonistic activity of the 5-hydroxyl-pyridine derivatives of the present invention and the reference compound (AZD9056), these compounds were added to the cells at a concentration of 10 μM with BzATP without pre-incubation. The cells were incubated for 2 hours under a humidified atmosphere of 5% CO2 at 37° C., and the absorption of ethidium dye was observed by measuring fluorescence with a Bio-Tek instrument FL600 fluorescent plate reader (excitation wavelength of 530 nm and emission wavelength of 590 nm). The results are expressed as a percentage relative to the maximum cumulative amount of ethidium bromide when stimulated with BzATP alone.
as §3

Compound	mP2X1 % inhibitory effect at 10 μM [1]	IC50 [2]	hP2X7 % inhibition of ethidium bromide accumulation [3]	other results
COc1ccc(CCc2cc(C(=O)O)c(O)c(C)n2)cc1 [Compound 22a, 3-Hydroxy-6-(4-methoxyphenethyl)-2-methylisonicotinic acid]	Inactive^c	681 ± 98 nM	Inactive	
COc1ccc(CCc2nc(CCS(C)(=O)=O)c(O)c(C(=O)O)c2C(=O)O)cc1 [Compound 13l, 5-Hydroxy-2-(4-methoxyphenethyl)-6-(2-(methylsulfonyl)ethyl)pyridine-3,4-dicarboxylic acid]	Inactive^c	721 ± 96 nM	Inactive	
COc1ccc(CCc2nc(CC(C)C)c(O)c(C(=O)O)c2C(=O)O)cc1 [Compound 13g, 5-Hydroxy-6-isobutyl-2-(4-methoxyphenethyl)pyridine-3,4-dicarboxylic acid]			inactive	inhibition at 10 µM [1]: 23.4 ± 0.8%; inhibition at 1 µM [2]: 32%
CCCc1nc(CCc2ccc(OC)cc2)c(C)c(C(N)=O)c1O [Compound 23, 5-Hydroxy-2-[2-(4-methoxyphenyl)ethyl]-3-methyl-6-propyl-pyridine-4-carboxamide]	Inactive^c	709 nM	inactive	
CCCCc1nc(CCc2ccc(OC)cc2)c(C(=O)O)c(C(=O)O)c1O [Compound 13e, 6-Butyl-5-hydroxy-2-(4-methoxyphenethyl)pyridine-3,4-dicarboxylic acid]		95 nM	inactive	inhibition at 10 µM [1]: 41.9 ± 9.1%; selectivity for hP2X3R to mP2X1R [2]: about 100 fold
COc1ccc(CCc2nc(CCSC)c(O)c(C(=O)O)c2C(=O)O)cc1 [Compound 13k, 5-Hydroxy-2-(4-methoxyphenethyl)-6-(2-(methylthio)ethyl)pyridine-3,4-dicarboxylic acid]	Inactive^c	287 ± 87 nM	inactive	
COc1ccc(CCc2cc(S(C)(=O)=O)c(O)c(C)n2)cc1 [Compound 20, 6-(4-Methoxyphenethyl)-2-methyl-4-(methylsulfonyl)pyridin-3-ol]	inactive^c		inactive	inhibition at 1 µM [2]: 20.4%
COc1ccc(CCc2nc(C(=O)O)c(O)c(C(=O)O)c2C(=O)O)cc1 [Compound 13j, 3-Hydroxy-6-(4-methoxyphenethyl)pyridine-2,4,5-tricarboxylic acid]		319 ± 81 nM	Inactive	inhibition at 10 µM [1]: 36.7 ± 2.8%
COc1ccc(CCc2nc(C)c(O)c(C(=O)O)c2C)cc1 [Compound 22b, 3-Hydroxy-6-(4-methoxyphenethyl)-2,5-dimethylisonicotinic acid]	Inactive^c	384 nM and 385 nM	inactive	
CCCc1nc(Cc2cccc(Oc3ccccc3)c2)c(C(=O)O)c(C(=O)O)c1O [Compound 27, 5-Hydroxy-2-(3-phenoxybenzyl)-6-propylpyridine-3,4-dicarboxylic acid]		301 nM	Inactive	inhibition at 10 µM [1]: 27.5 ± 4.5%
O=C(Nc1cc(C(=O)Nc2ccc(S(=O)(=O)O)cc2S(=O)(=O)O)cc(C(=O)Nc2ccc(S(=O)(=O)O)cc2S(=O)(=O)O)c1)Nc1cc(C(=O)Nc2ccc(S(=O)(=O)O)cc2S(=O)(=O)O)cc(C(=O)Nc2ccc(S(=O)(=O)O)cc2S(=O)(=O)O)c1 [NF-449, reference compound]				IC50 ([1]; read-out: mP2X1 (positive control, value in pM)): 307 ± 93 pM
CCCc1nc(Cc2cccc(Oc3ccccc3)c2)c(C)c(CCC(=O)O)c1O [Compound 37, 3-(3-Hydroxy-5-methyl-6-(3-phenoxybenzyl)-2-propylpyridin-4-yl)propanoic acid]	inactive^c		inactive	
COc1ccc(CCc2nc(C)c(O)c(C(=O)O)c2C(=O)O)cc1 [Compound 13b, 5-Hydroxy-2-(4-methoxyphenethyl)-6-methylpyridine-3,4-dicarboxylic acid]			Inactive	selectivity for hP2X3R to mP2X1R [2]: non-selective
O=C(NCC12CC3CC(CC(C3)C1)C2)c1cc(CCCNCCCO)ccc1Cl [AZD9056, reference compound]				IC50 ([3]; ethidium accumulation, read-out: hP2X7 (reference compound, value in nM)): 0.23 ± 0.11 nM

Source: patent publication US11319289B2, “5-hydroxy pyridine-based compound for use as P2X1 and P2X3 receptor antagonist and pharmaceutical composition comprising same” (GWANGJU INSTITUTE OF SCIENCE AND TECHNOLOGY, priority 2017, dated 2022)
